Results reported in ChEMBL document CHEMBL1201862, “PubChem BioAssay data set” (2004).
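Five concentrations, 48 hours, 96-well plates. GI50 is the concentration that inhibits growth by half.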 Calls of active or inactive are those of the source. Rule as the data show it: active = GI50 up to about 1.1 µM and inactive = higher.

What was measured:
Assay in all cases: NCI tumour cell line growth inhibition, 48 h
M19-MEL = system: M19-MEL
UO-31 = system: UO-31
NCI-H460 = system: NCI-H460
UACC-62 = system: UACC-62
CAKI-1 = system: CAKI-1
SW-620 = system: SW-620
K562 = system: K562
SNB-75 = system: SNB-75
SNB-19 = system: SNB-19
TK-10 = system: TK-10
A549 = system: A549
CCRF-CEM = system: CCRF-CEM
NCI-H23 = system: NCI-H23
MOLT-4 = system: MOLT-4
SN12C = system: SN12C
ACHN = system: ACHN
SR = system: SR
MCF7 = system: MCF7
PC-3 = system: PC-3
MDA-MB-435 = system: MDA-MB-435

Measured: GI50

O=c1[c-](-c2ccccc2)[se]c(-c2ccccc2)[n+]1-c1ccccc1
inactive: M19-MEL 7.59 µM | UO-31 3.08 µM | NCI-H460 15.9 µM | UACC-62 13 µM | CAKI-1 19.1 µM | SW-620 12.5 µM | K562 16.8 µM | SNB-75 8.15 µM | SNB-19 7.52 µM | TK-10 8.32 µM | A549 16.3 µM | CCRF-CEM 3.87 µM | NCI-H23 11.8 µM | MOLT-4 18.8 µM | SN12C 5.05 µM

Cc1cc2c(cc1C)[n+]([O-])c(C(=O)C/C(=N/NC(=O)CC#N)C(=O)Nc1ccccc1C(F)(F)F)c(C)[n+]2[O-]
inactive: M19-MEL 43.2 µM | NCI-H460 34.4 µM | UACC-62 34 µM | CAKI-1 57.7 µM | SW-620 50.6 µM | K562 35.6 µM | SNB-75 36.6 µM | SNB-19 75 µM | ACHN 29.7 µM | TK-10 > 100 µM | A549 35 µM | CCRF-CEM 25.4 µM | NCI-H23 91.4 µM | MOLT-4 52 µM | SN12C 76 µM

C[N+](C)(C)CC(=O)N/N=C/c1oc(-c2cccc([N+](=O)[O-])c2)c(-c2cccc([N+](=O)[O-])c2)c1[N+](=O)[O-]
inactive: M19-MEL 38.5 µM | UO-31 79.1 µM | NCI-H460 > 100 µM | UACC-62 29.5 µM | SR 40.1 µM | SW-620 31.3 µM | K562 > 10 µM | SNB-19 85.9 µM | ACHN > 100 µM | TK-10 > 100 µM | A549 > 100 µM | CCRF-CEM 35.2 µM | NCI-H23 > 100 µM | MOLT-4 > 10 µM | SN12C > 100 µM

COc1cc(C2C(Cl)C(=O)N2NC(=O)c2ccc(N)cc2)cc(Br)c1O (configuration not stated)
inactive: M19-MEL 17.9 µM | UO-31 17.8 µM | NCI-H460 16.6 µM | UACC-62 14 µM | CAKI-1 16.8 µM | SW-620 15.2 µM | K562 10.2 µM | SNB-75 17.2 µM | SNB-19 11.7 µM | ACHN 19.2 µM | TK-10 18.5 µM | A549 21.5 µM | CCRF-CEM 2.92 µM | NCI-H23 16.4 µM | MOLT-4 4.23 µM | SN12C 17 µM

Cc1ccc(S(=O)(=O)N2CCC(C(=O)O)(c3ccccc3)CC2)cc1
inactive: UO-31 > 100 µM | NCI-H460 > 100 µM | UACC-62 > 100 µM | MCF7 > 100 µM | PC-3 > 100 µM | CAKI-1 > 100 µM | SR > 100 µM | SW-620 > 100 µM | K562 > 100 µM | SNB-75 > 100 µM | SNB-19 > 100 µM | ACHN > 100 µM | TK-10 > 100 µM | A549 > 100 µM | CCRF-CEM > 100 µM | NCI-H23 > 100 µM | MOLT-4 > 100 µM | SN12C > 100 µM | MDA-MB-435 > 100 µM

CC(C)(C)OC(=O)NCCCNC1(c2cc3ccccc3s2)CCCCC1
inactive: UO-31 12.6 µM | NCI-H460 14.3 µM | UACC-62 17.4 µM | MCF7 15.9 µM | PC-3 18.8 µM | CAKI-1 13.6 µM | SR 10.2 µM | SW-620 15.5 µM | K562 10.5 µM | SNB-75 15.6 µM | SNB-19 13.6 µM | ACHN 19.2 µM | TK-10 16.6 µM | A549 12.6 µM | CCRF-CEM 8.22 µM | NCI-H23 13 µM | MOLT-4 12.5 µM | SN12C 15.3 µM | MDA-MB-435 14.7 µM

CC(=O)Nc1ccc(-c2nnc(SCC(=O)Nc3ccccc3Cl)o2)cc1
inactive: M19-MEL > 100 µM | UO-31 > 100 µM | NCI-H460 > 100 µM | CAKI-1 > 100 µM | SW-620 > 100 µM | K562 > 100 µM | SNB-75 > 100 µM | SNB-19 > 100 µM | ACHN > 100 µM | TK-10 > 100 µM | A549 > 100 µM | CCRF-CEM > 100 µM | NCI-H23 > 100 µM | MOLT-4 > 100 µM | SN12C > 100 µM

O=C(Nc1ccc(Cl)cc1Cl)OC(Cn1cncn1)c1ccc(Cl)cc1Cl (configuration not stated)
inactive: M19-MEL 17.1 µM | UO-31 13.2 µM | UACC-62 14.8 µM | SR 41.3 µM | SW-620 16.7 µM | K562 15.3 µM | SNB-75 16.1 µM | SNB-19 16.9 µM | ACHN 15.5 µM | A549 15.5 µM | CCRF-CEM 38.9 µM | NCI-H23 14.6 µM | MOLT-4 31.6 µM | SN12C 16.9 µM

CC(C)(C)c1cc(CCC(=O)Nc2ccc(Cl)cc2)nc(NC#N)n1
inactive: M19-MEL > 100 µM | UO-31 > 100 µM | NCI-H460 > 100 µM | UACC-62 > 100 µM | CAKI-1 > 100 µM | SW-620 > 100 µM | K562 > 100 µM | SNB-19 > 100 µM | ACHN > 100 µM | TK-10 > 100 µM | A549 > 100 µM | CCRF-CEM > 100 µM | NCI-H23 > 100 µM | MOLT-4 > 100 µM

CCCN(CCC)C(=O)c1c(Cl)c2cccnc2n2c(C)cnc12
inactive: UO-31 38.8 µM | NCI-H460 76.9 µM | UACC-62 52.7 µM | MCF7 47.9 µM | PC-3 23.9 µM | CAKI-1 22.9 µM | SR 32.9 µM | SW-620 23.2 µM | K562 26.3 µM | SNB-75 62.7 µM | SNB-19 > 100 µM | ACHN > 100 µM | TK-10 > 100 µM | A549 48.8 µM | CCRF-CEM 51.8 µM | NCI-H23 90.2 µM | MOLT-4 33.3 µM | SN12C > 100 µM | MDA-MB-435 27.2 µM

O=C(CC(=O)N(C(=O)/C=C\c1ccccc1)c1ccc(Cl)cc1)N1N=C(c2ccccc2)C(/N=N/c2cccc([N+](=O)[O-])c2)C1=O (configuration not stated)
inactive: UO-31 > 100 µM | NCI-H460 3.63 µM | UACC-62 3.09 µM | MCF7 3.45 µM | PC-3 3.23 µM | CAKI-1 10.7 µM | SR 1.57 µM | SW-620 2.32 µM | K562 4.65 µM | SNB-75 11.9 µM | SNB-19 13.9 µM | ACHN 5.13 µM | TK-10 7.89 µM | A549 5.05 µM | CCRF-CEM 1.36 µM | NCI-H23 8.28 µM | MOLT-4 2.56 µM | SN12C 1.29 µM | MDA-MB-435 9.82 µM

Nc1ncnc2c1ncn2C1OC(CO)C2OC21 (configuration not stated)
inactive: UO-31 > 100 µM | NCI-H460 > 10 µM | UACC-62 > 100 µM | MCF7 > 100 µM | PC-3 > 100 µM | CAKI-1 > 100 µM | SR > 100 µM | SW-620 > 100 µM | K562 72.8 µM | SNB-75 > 100 µM | SNB-19 > 100 µM | ACHN > 100 µM | TK-10 > 100 µM | A549 > 100 µM | CCRF-CEM > 100 µM | NCI-H23 > 100 µM | MOLT-4 > 100 µM | SN12C > 100 µM | MDA-MB-435 > 10 µM

C=CCN(c1cc(OCc2ccccc2)c2[nH]cc(C)c2c1)S(C)(=O)=O
inactive: UO-31 41.8 µM | NCI-H460 76.2 µM | UACC-62 22.8 µM | MCF7 59.7 µM | PC-3 49.4 µM | CAKI-1 61.7 µM | SR > 100 µM | SW-620 > 100 µM | K562 > 100 µM | SNB-75 19.8 µM | SNB-19 57.9 µM | ACHN 37.6 µM | TK-10 92.3 µM | A549 34.7 µM | CCRF-CEM > 100 µM | NCI-H23 87.1 µM | MOLT-4 33.5 µM | SN12C 51.3 µM | MDA-MB-435 72.1 µM

CCP(C)(C)=O
inactive: M19-MEL > 100 µM | UO-31 > 10 µM | NCI-H460 > 100 µM | UACC-62 > 100 µM | CAKI-1 > 100 µM | SW-620 > 100 µM | K562 > 100 µM | SNB-75 > 100 µM | SNB-19 > 100 µM | ACHN > 100 µM | TK-10 > 100 µM | A549 > 100 µM | CCRF-CEM > 100 µM | NCI-H23 > 100 µM | MOLT-4 > 100 µM | SN12C > 100 µM

NNc1ncc2c(n1)-c1ccccc1OC2
inactive: UO-31 41.1 µM | NCI-H460 32.3 µM | UACC-62 63.7 µM | MCF7 50.1 µM | PC-3 47.2 µM | CAKI-1 > 100 µM | SR 27.8 µM | SW-620 69.7 µM | K562 50.9 µM | SNB-75 35.6 µM | SNB-19 > 100 µM | ACHN 42.2 µM | TK-10 > 100 µM | A549 96.2 µM | CCRF-CEM 17.3 µM | NCI-H23 > 100 µM | MOLT-4 22.5 µM | SN12C 71.6 µM | MDA-MB-435 70.5 µM

COc1ccccc1NS(=O)(=O)c1ccc2ncn(NS(=O)(=O)c3ccc(Cl)cc3)c(=O)c2c1
inactive: UO-31 35.2 µM | NCI-H460 > 100 µM | UACC-62 39.1 µM | MCF7 > 100 µM | PC-3 5.51 µM | CAKI-1 > 100 µM | SR 63.8 µM | SW-620 > 100 µM | K562 3.36 µM | SNB-75 > 100 µM | SNB-19 > 100 µM | ACHN > 100 µM | TK-10 > 100 µM | A549 75 µM | CCRF-CEM 54.7 µM | NCI-H23 > 100 µM | MOLT-4 > 100 µM | SN12C > 100 µM | MDA-MB-435 > 100 µM
